The values that follow come from ChEMBL document CHEMBL1201862, “PubChem BioAssay data set” (2004).

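Assay format: 96-well plates, 48-hour exposure. The concentration for 50% growth inhibition is given as GI50.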 The source made the active and inactive calls. No stated cut-off is given here; in the data, active = GI50 up to about 1.1 µM and inactive = higher.

Test systems include CCRF-CEM; COLO 205; HCC 2998; HCT-15; MCF7; MDA-MB-231; MDA-N; NCI-H460; OVCAR-4; RXF 393; SF-295; SK-MEL-5; SNB-75; SR; SW-620; U-251; UACC-62; HOP-62; SF-268.
What all share (test): growth of human tumour cells (NCI), 48 h

As to `CC(C)C(C=O)C(O)(C(F)(F)F)C(F)(F)F` (configuration not stated), the GI50 in the assay on CCRF-CEM was > 10 µM (inactive); with COLO 205, > 100 µM (inactive); in the assay with HCC 2998 it was > 100 µM (inactive); in the assay with HCT-15, over 100 µM; in the assay on MCF7, > 100 µM (inactive); in the assay on MDA-MB-231 it was > 100 µM (inactive). For the same molecule, the GI50 in the assay on MDA-N, in the assay on NCI-H460, in the assay with OVCAR-4, with RXF 393, in the assay on SF-295 and in the assay with SK-MEL-5 was > 100 µM (inactive) in each case. Further, the GI50 with SNB-75 is 11.3 µM (inactive); in the assay on SR, > 100 µM (inactive); with SW-620, > 100 µM (inactive); with U-251 it was > 100 µM (inactive); with UACC-62, > 100 µM (inactive).

Regarding `Oc1nncc2[nH]c(-c3ccccc3)cc12`, the GI50 in the assay with CCRF-CEM is 36.7 µM (inactive); in the assay with COLO 205 it was 43.1 µM (inactive); with HCC 2998, 36 µM (inactive); in the assay on HCT-15 it was 45.8 µM; in the assay on HOP-62 it was 61.5 µM (inactive); in the assay with MCF7 it was 24.4 µM (inactive). Besides, the GI50 in the assay on MDA-MB-231 is 34 µM (inactive); in the assay on MDA-N it was 38.9 µM (inactive); with NCI-H460, 45.5 µM (inactive); in the assay with OVCAR-4, 55.1 µM (inactive); in the assay on RXF 393, 27 µM (inactive); in the assay with SF-268, 39.4 µM (inactive). The GI50 is 26.2 µM (inactive) with SF-295; 23.3 µM (inactive) in the assay with SK-MEL-5; 22.9 µM (inactive) in the assay on SNB-75; 46.5 µM (inactive) with SR; 64.4 µM (inactive) in the assay on SW-620; 52 µM (inactive) in the assay with U-251. Further, the GI50 with UACC-62 was 33.9 µM (inactive).

As for `O=c1c2c3c(sc2nc2n1N=C(c1ccc(Br)cc1)CS2)CCCC3`, the GI50 in the assay on CCRF-CEM was > 100 µM (inactive); with COLO 205, > 100 µM (inactive); in the assay with HCC 2998 it was > 100 µM (inactive); with HCT-15, over 100 µM; in the assay with HOP-62 it was > 100 µM (inactive); with MCF7 it was > 100 µM (inactive). Also, the GI50 in the assay with MDA-MB-231, in the assay on MDA-N, with NCI-H460, in the assay on OVCAR-4, in the assay on RXF 393 and in the assay on SF-268 was > 100 µM (inactive) each time. Moreover, the GI50 in the assay with SF-295, in the assay with SNB-75, with SR, in the assay with SW-620, in the assay with U-251 and with UACC-62 was > 100 µM (inactive) in each case.

Turning to `O=C1c2c(ccc3c2CCC3)CC1Cc1ccc2c(c1)CCC2` (configuration not stated), the GI50 was 14.5 µM (inactive) in the assay on CCRF-CEM; 20.3 µM (inactive) in the assay with COLO 205; 34.3 µM (inactive) with HCC 2998; 11 µM in the assay with HCT-15; 28.1 µM (inactive) in the assay with HOP-62; 22.6 µM (inactive) with MCF7. The GI50 in the assay with MDA-MB-231 is 10.3 µM (inactive); in the assay on MDA-N, 30.8 µM (inactive); with NCI-H460, 33.8 µM (inactive); in the assay with OVCAR-4, 27.5 µM (inactive); in the assay with RXF 393, 25.7 µM (inactive); in the assay on SF-268, 33.7 µM (inactive). The GI50 with SF-295 was 26.9 µM (inactive); with SK-MEL-5 it was 12.5 µM (inactive); in the assay with SNB-75, 7.38 µM (inactive); with SR, 5.27 µM (inactive); in the assay with SW-620 it was 17.1 µM (inactive); with U-251 it was 24.2 µM (inactive). The GI50 in the assay on UACC-62 is 8.24 µM (inactive).

For `C=C1CCCCCCCCC/C=C/1SCCCSC`, the GI50 in the assay with COLO 205 was > 100 µM (inactive); in the assay on HCC 2998, > 100 µM (inactive); in the assay with HCT-15, over 100 µM; with HOP-62 it was > 100 µM (inactive); in the assay with MCF7, > 100 µM (inactive); with MDA-MB-231, > 100 µM (inactive). Also, the GI50 with MDA-N, in the assay on NCI-H460, with OVCAR-4, in the assay with RXF 393, in the assay on SF-268 and with SF-295 was > 100 µM (inactive) each time. Moreover, the GI50 in the assay on SK-MEL-5, in the assay on SR, in the assay with SW-620, with U-251 and in the assay on UACC-62 was > 100 µM (inactive) throughout.

For `COc1cc(C2c3cc4c(cc3OC(NNC(N)=S)C2C)OCO4)cc(OC)c1OC` (configuration not stated), the GI50 in the assay on CCRF-CEM is 0.244 µM (active); in the assay on COLO 205, 0.277 µM (active); in the assay on HCC 2998, 0.906 µM (active); in the assay on HCT-15 it was 0.451 µM; in the assay with HOP-62, 0.344 µM (active); with MCF7, 0.457 µM (active). Moreover, the GI50 in the assay with MDA-MB-231 is 0.4 µM (active); in the assay on MDA-N it was 0.084 µM (active); in the assay on NCI-H460, 0.376 µM (active); in the assay on OVCAR-4, 41.3 µM (inactive); in the assay with RXF 393 it was 0.279 µM (active); in the assay on SF-268 it was 3.33 µM (inactive). Further, the GI50 was 0.231 µM (active) in the assay with SF-295; 0.269 µM (active) with SK-MEL-5; 71.3 µM (inactive) in the assay on SNB-75; 0.0811 µM (active) with SR; 0.363 µM (active) in the assay on SW-620; 0.362 µM (active) in the assay with U-251. In the assay on UACC-62, the GI50 is 0.318 µM (active).

Take `CC(=O)N1C(c2[nH]c3ccccc3c2Cc2ccccc2)CCN1c1ccccc1` (configuration not stated): the GI50 with CCRF-CEM was 3.66 µM (inactive); in the assay with COLO 205, 8.81 µM (inactive); in the assay on HCC 2998, 5.97 µM (inactive); in the assay with HCT-15, over 10 µM; in the assay with HOP-62, > 10 µM (inactive); with MCF7 it was 8.45 µM (inactive). The GI50 in the assay with MDA-MB-231 is > 10 µM (inactive); with MDA-N, 7.29 µM (inactive); in the assay on NCI-H460, 5.22 µM (inactive); in the assay on OVCAR-4, > 10 µM (inactive); in the assay with RXF 393 it was 4.16 µM (inactive); with SF-268 it was 4.72 µM (inactive). For the same molecule, the GI50 in the assay on SF-295 was 4.35 µM (inactive); with SK-MEL-5 it was > 10 µM (inactive); with SNB-75 it was 5.83 µM (inactive); in the assay on SR, 4.81 µM (inactive); in the assay with SW-620, > 10 µM (inactive).

For `Fc1ccc(OCc2ccc3nc(-c4ccccc4)c(Cl)nc3c2)cc1`, the GI50 was 25.7 µM (inactive) in the assay with CCRF-CEM; 37.1 µM (inactive) in the assay on COLO 205; 40.5 µM (inactive) in the assay on HCC 2998; over 100 µM in the assay on HCT-15; 16.3 µM (inactive) with HOP-62; 53.1 µM (inactive) in the assay on MCF7. For the same molecule, the GI50 in the assay on MDA-MB-231 is 20 µM (inactive); in the assay on MDA-N, 72.4 µM (inactive); with NCI-H460, 30.1 µM (inactive); with OVCAR-4, 39.5 µM (inactive); in the assay on SF-268, 26 µM (inactive); in the assay with SF-295, 21.4 µM (inactive). In addition, the GI50 is 17 µM (inactive) in the assay on SK-MEL-5; 16.7 µM (inactive) in the assay with SNB-75; 16.1 µM (inactive) in the assay on SR; 77.3 µM (inactive) with SW-620; 16.8 µM (inactive) in the assay on U-251; 28.8 µM (inactive) in the assay on UACC-62.

For the molecule `CN(C)c1nc(N(C)C)nc(N(C)C23CC4CC(CC(C4)C2)C3)n1`, the GI50 with CCRF-CEM was 22.4 µM (inactive); in the assay on COLO 205, 15.1 µM (inactive); in the assay on HCC 2998 it was 39.6 µM (inactive); in the assay on HCT-15, over 100 µM; with HOP-62, 24 µM (inactive); in the assay with MCF7, 37.6 µM (inactive). Besides, the GI50 was 23.8 µM (inactive) in the assay with MDA-MB-231; 21 µM (inactive) in the assay with MDA-N; 53.1 µM (inactive) with NCI-H460; 44.8 µM (inactive) in the assay on OVCAR-4; 20 µM (inactive) in the assay with RXF 393; 39.5 µM (inactive) with SF-268. The GI50 was 18.4 µM (inactive) in the assay on SF-295; 24.3 µM (inactive) in the assay with SNB-75; 39.1 µM (inactive) in the assay with SR; 34.4 µM (inactive) in the assay with SW-620; 30.1 µM (inactive) with U-251; 56.8 µM (inactive) with UACC-62.

On to `CC1=NN(c2nc(N)nc(/C(C#N)=C/c3ccccc3O)n2)C(C)(C)C1`, for which the GI50 with CCRF-CEM was 18 µM (inactive); with COLO 205, 17.4 µM (inactive); in the assay with HCC 2998, 19.5 µM (inactive); with HCT-15, 19.4 µM; in the assay with HOP-62, 20.5 µM (inactive); in the assay on MCF7, 24.8 µM (inactive). The GI50 was 19.9 µM (inactive) in the assay on MDA-MB-231; 15.3 µM (inactive) in the assay on MDA-N; 19.4 µM (inactive) with NCI-H460; 19 µM (inactive) in the assay on OVCAR-4; 20.2 µM (inactive) in the assay on RXF 393; 18.2 µM (inactive) with SF-268. Moreover, the GI50 is 15.6 µM (inactive) in the assay with SF-295; 15.5 µM (inactive) in the assay with SK-MEL-5; 35.9 µM (inactive) in the assay on SR; 18.4 µM (inactive) in the assay on U-251; 17.1 µM (inactive) in the assay with UACC-62.

Consider `CNC(=O)CNC(=O)C(Cc1ccc(NC(=O)CCCCC(C)=O)cc1)NC(=O)C(CCC(=O)OCc1ccccc1)NC(=O)OC(C)(C)C` (configuration not stated), for which the GI50 in the assay on COLO 205 is > 100 µM (inactive); in the assay on HCC 2998 it was > 100 µM (inactive); with HCT-15, over 100 µM; in the assay on HOP-62, > 100 µM (inactive); in the assay with MCF7, > 100 µM (inactive); with MDA-MB-231, > 100 µM (inactive). Further, the GI50 in the assay with MDA-N, in the assay with NCI-H460, with OVCAR-4, in the assay on RXF 393, in the assay on SF-268 and with SF-295 was > 100 µM (inactive) in each case. In addition, the GI50 in the assay with SK-MEL-5, with SNB-75, in the assay on SR, in the assay on SW-620, in the assay on U-251 and with UACC-62 was > 100 µM (inactive) in each case.
